Where two headings read alike, the source gives them in different places.
What was measured:
5-HT6 receptor [1] = molecular target: T1, 5-HT6 receptor (Homo sapiens, UniProt P50406); assay: Radioligand binding, 5-HT6 ([3H]-LSD displacement)
5-HT7 receptor = 5-HT7 receptor (Homo sapiens, UniProt P34969); assay: Radioligand binding, 5-HT7 ([3H]-5-CT displacement)
dopamine D2L receptor = dopamine D2L receptor (Homo sapiens, UniProt P14416); assay: Radioligand binding, D2 ([3H]-raclopride displacement)
dopamine D2L receptor, sequence (P14416 whole entry): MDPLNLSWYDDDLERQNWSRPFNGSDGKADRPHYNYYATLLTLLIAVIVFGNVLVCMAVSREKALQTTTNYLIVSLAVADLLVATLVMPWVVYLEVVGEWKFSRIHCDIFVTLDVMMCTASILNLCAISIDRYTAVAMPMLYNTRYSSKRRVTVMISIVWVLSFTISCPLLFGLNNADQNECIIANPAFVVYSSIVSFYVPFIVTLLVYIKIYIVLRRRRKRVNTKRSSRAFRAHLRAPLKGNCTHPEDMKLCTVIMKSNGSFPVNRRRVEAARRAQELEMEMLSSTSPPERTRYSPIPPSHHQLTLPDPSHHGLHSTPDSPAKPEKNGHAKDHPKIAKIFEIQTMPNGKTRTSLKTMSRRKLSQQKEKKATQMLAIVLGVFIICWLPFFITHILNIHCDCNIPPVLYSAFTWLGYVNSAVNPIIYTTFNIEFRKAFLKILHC

5-HT1A receptor = molecular target: T2, 5-HT1A receptor (Homo sapiens, UniProt P08908); assay: Radioligand binding, 5-HT1A ([3H]-8-OH-DPAT displacement)
T2 sequence (P08908 1-422): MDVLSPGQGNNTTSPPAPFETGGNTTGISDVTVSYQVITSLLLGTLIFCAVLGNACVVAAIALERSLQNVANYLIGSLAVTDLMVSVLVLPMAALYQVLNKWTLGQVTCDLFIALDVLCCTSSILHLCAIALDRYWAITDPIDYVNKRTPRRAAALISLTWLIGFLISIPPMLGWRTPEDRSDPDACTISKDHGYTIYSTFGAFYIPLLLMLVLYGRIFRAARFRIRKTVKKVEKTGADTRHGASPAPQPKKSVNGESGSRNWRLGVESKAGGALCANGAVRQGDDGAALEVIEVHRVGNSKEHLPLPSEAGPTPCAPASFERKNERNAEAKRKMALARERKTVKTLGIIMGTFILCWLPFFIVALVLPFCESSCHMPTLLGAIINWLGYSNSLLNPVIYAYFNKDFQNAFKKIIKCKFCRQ

5-HT6 receptor [2] = molecular target: T1, 5-HT6 receptor; assay: CHO-human-5HT6-Aequorin functional assay (ago-/antagonism); settings: test concentration not given; for % inhibition of control agonist response: agonist effect, CHO-human-5HT6-Aequorin cells; for % inhibition of control antagonist response: antagonist effect vs 10^-6 M α-methylserotonin induced luminescence
[3] = read-out: Ki 5-HT6, cloned human receptor in HEK293, three independent experiments, SEM ± 22%

T1 sequence (P50406 whole entry): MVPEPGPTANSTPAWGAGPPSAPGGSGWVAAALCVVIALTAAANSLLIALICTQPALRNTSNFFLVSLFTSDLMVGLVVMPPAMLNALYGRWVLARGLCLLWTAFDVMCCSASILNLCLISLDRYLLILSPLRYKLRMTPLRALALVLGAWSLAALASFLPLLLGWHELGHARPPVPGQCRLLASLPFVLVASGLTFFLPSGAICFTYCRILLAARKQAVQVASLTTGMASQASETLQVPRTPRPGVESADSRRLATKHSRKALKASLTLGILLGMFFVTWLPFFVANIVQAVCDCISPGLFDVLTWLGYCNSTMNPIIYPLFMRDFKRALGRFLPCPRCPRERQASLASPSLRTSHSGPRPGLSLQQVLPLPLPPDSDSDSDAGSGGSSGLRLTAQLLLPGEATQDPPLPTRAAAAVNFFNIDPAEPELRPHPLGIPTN
5-HT7 receptor, sequence (P34969 1-432 limits assumed): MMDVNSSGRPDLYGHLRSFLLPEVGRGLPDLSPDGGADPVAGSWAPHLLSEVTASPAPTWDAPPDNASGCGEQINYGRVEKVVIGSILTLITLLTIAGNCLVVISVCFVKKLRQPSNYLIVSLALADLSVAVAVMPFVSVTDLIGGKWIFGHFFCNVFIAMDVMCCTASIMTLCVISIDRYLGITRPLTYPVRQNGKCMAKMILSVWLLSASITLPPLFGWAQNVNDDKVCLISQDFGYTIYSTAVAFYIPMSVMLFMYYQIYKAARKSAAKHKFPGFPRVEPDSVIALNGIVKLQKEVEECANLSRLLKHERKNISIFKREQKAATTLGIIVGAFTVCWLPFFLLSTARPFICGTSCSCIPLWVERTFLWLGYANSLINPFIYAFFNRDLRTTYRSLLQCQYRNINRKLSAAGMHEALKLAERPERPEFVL

Ki (5-HT6 receptor [1]) [nM] | Ki (5-HT7 receptor) [nM] | Ki (dopamine D2L receptor) [nM] | Ki (5-HT1A receptor) [nM] | % inhibition of control agonist response (5-HT6 receptor [2]) [%] | % inhibition of control antagonist response (5-HT6 receptor [2]) [%] | Structure (SMILES) | Ki (5-HT6 receptor [1]; [3]) [nM] | Ki (5-HT7 receptor; read-out: Ki 5-HT7) [nM] | Ki (dopamine D2L receptor; read-out: Ki D2, cloned human receptor in HEK293, three independent experiments, SEM ± 22%) [nM] | Ki (5-HT1A receptor; read-out: Ki 5-HT1A, cloned human receptor in HEK293, three independent experiments, SEM ± 22%) [nM]
10 | 3970 | 2260 | 1880 | – | – | CN(C)CCNc1nc2ccccc2c2c1ccn2S(=O)(=O)c1ccccc1 [Compound 1, N1,N1-dimethyl-N2-(1-(phenylsulfonyl)-1H-pyrrolo[3,2-c]quinolin-4-yl)ethane-1,2-diamine] | – | – | – | –
– | 2130 | 1440 | 3030 | – | – | O=S(=O)(c1cccc(Cl)c1)n1ccc2c(NC3CCNC3)nc3ccccc3c21 (stereo not shown) [Compound 5, 1-((3-chlorophenyl)sulfonyl)-N-(pyrrolidin-3-yl)-1H-pyrrolo[3,2-c]quinolin-4-amine] | – | – | – | –
5 | 9590 | 900 | 3010 | 9.6 | 80.8 | O=S(=O)(c1cccc(F)c1)n1ccc2c(NC3CCNC3)nc3ccccc3c21 (stereo not shown) [Compound 8, 1-((3-fluorophenyl)sulfonyl)-N-(pyrrolidin-3-yl)-1H-pyrrolo[3,2-c]quinolin-4-amine] | – | – | – | –
18 | 6880 | 664 | 5830 | 4.8 | 51.8 | O=S(=O)(c1ccc(F)cc1)n1ccc2c(NC3CCNC3)nc3ccccc3c21 (stereo not shown) [Compound 11, 1-((4-fluorophenyl)sulfonyl)-N-(pyrrolidin-3-yl)-1H-pyrrolo[3,2-c]quinolin-4-amine] | – | – | – | –
6 | 4850 | 513 | 5190 | 6.5 | 68.8 | COc1cccc(S(=O)(=O)n2ccc3c(NC4CCNC4)nc4ccccc4c32)c1 (stereo not shown) [Compound 13, 1-((3-methoxyphenyl)sulfonyl)-N-(pyrrolidin-3-yl)-1H-pyrrolo[3,2-c]quinolin-4-amine] | – | – | – | –
7 | 3820 | 1280 | – | 10.8 | 88.8 | O=S(=O)(c1cccc(C(F)(F)F)c1)n1ccc2c(NC3CCNC3)nc3ccccc3c21 (stereo not shown) [Compound 14, 1-((3-(trifluoromethyl)phenyl)sulfonyl)-N-(pyrrolidin-3-yl)-1H-pyrrolo[3,2-c]quinolin-4-amine] | – | – | – | –
94 | 1310 | 1550 | 19100 | – | – | Cc1ccc2sc(S(=O)(=O)n3ccc4c(NC5CCNC5)nc5ccccc5c43)cc2c1 (stereo not shown) [Compound 23, 1-((5-methylbenzo[b]thiophen-2-yl)sulfonyl)-N-(pyrrolidin-3-yl)-1H-pyrrolo[3,2-c]quinolin-4-amine] | – | – | – | –
– | – | 1130 | 298 | – | – | O=S(=O)(c1ccccc1)n1ccc2c(N3CCNCC3)nc3ccccc3c21 [Compound 27, 1-(phenylsulfonyl)-4-(piperazin-1-yl)-1H-pyrrolo[3,2-c]quinoline] | – | – | – | –
– | – | – | – | – | – | Cc1cccc(S(=O)(=O)n2ccc3c(N4CCNCC4)nc4ccccc4c32)c1 [Compound 39, 1-((3-methylphenyl)sulfonyl)-4-(piperazin-1-yl)-1H-pyrrolo[3,2-c]quinoline] | – | 4140 | 2160 | 760
8 | – | 817 | 590 | – | – | O=S(=O)(c1ccc(Cl)s1)n1ccc2c(N3CCNCC3)nc3ccccc3c21 [Compound 46, 1-((5-chlorothiophen-2-yl)sulfonyl)-4-(piperazin-1-yl)-1H-pyrrolo[3,2-c]quinoline] | – | – | – | –
– | 3800 | 342 | 127 | – | – | CN1CCN(c2nc3ccccc3c3c2ccn3S(=O)(=O)c2ccccc2)CC1 [Compound 53, 1-(phenylsulfonyl)-4-(4-methylpiperazin-1-yl)-1H-pyrrolo[3,2-c]quinoline] | – | – | – | –
– | 8250 | 894 | 640 | – | – | CN1CCN(c2nc3ccccc3c3c2ccn3S(=O)(=O)c2cccc(F)c2)CC1 [Compound 55, 1-((3-fluorophenyl)sulfonyl)-4-(4-methylpiperazin-1-yl)-1H-pyrrolo[3,2-c]quinoline] | – | – | – | –
– | – | – | – | 1.5 | 97.3 | CN1CCN(c2nc3ccccc3c3c2ccn3S(=O)(=O)c2ccc(N)cc2)CC1 [Compound 57, 1-((4-aminophenyl)sulfonyl)-4-(4-methylpiperazin-1-yl)-1H-pyrrolo[3,2-c]quinoline] | – | – | – | –
36 | – | 826 | 211 | – | – | CN1CCN(c2nc3ccccc3c3c2ccn3S(=O)(=O)c2cccc3ccccc23)CC1 [Compound 58, 1-(naphthalen-1-ylsulfonyl)-4-(4-methylpiperazin-1-yl)-1H-pyrrolo[3,2-c]quinoline] | – | – | – | –
220 | 2360 | 415 | 33000 | – | – | O=S(=O)(c1ccccc1)n1ccc2c(N3CCN(Cc4ccccc4)CC3)nc3ccccc3c21 [Compound 60, 1-(phenylsulfonyl)-4-(4-benzylpiperazin-1-yl)-1H-pyrrolo[3,2-c]quinoline] | – | – | – | –
93 | 16200 | 239 | 12800 | – | – | O=S(=O)(c1ccc(Cl)s1)n1ccc2c(N3CCN(Cc4ccccc4)CC3)nc3ccccc3c21 [Compound 61, 1-((5-chlorothiophen-2-yl)sulfonyl)-4-(4-benzylpiperazin-1-yl)-1H-pyrrolo[3,2-c]quinoline] | – | – | – | –
66 | 5870 | 1470 | 3520 | – | – | O=S(=O)(c1cccc2cccnc12)n1ccc2c(N3CCN(Cc4ccccc4)CC3)nc3ccccc3c21 [Compound 62, 1-(quinolin-8-ylsulfonyl)-4-(4-benzylpiperazin-1-yl)-1H-pyrrolo[3,2-c]quinoline] | – | – | – | –
361 | 22300 | 14500 | – | 22.2 | 11.6 | O=S(=O)(c1cccc(Cl)c1)n1ccc2c(N3CCCCC3)nc3ccccc3c21 [Compound 76, 1-((3-chlorophenyl)sulfonyl)-4-(piperidin-1-yl)-1H-pyrrolo[3,2-c]quinoline] | – | – | – | –
188 | 27000 | 5830 | 85400 | – | – | O=S(=O)(c1cccc2cccnc12)n1ccc2c(N3CCCCC3)nc3ccccc3c21 [Compound 77, 1-(quinolin-8-ylsulfonyl)-4-(piperidin-1-yl)-1H-pyrrolo[3,2-c]quinoline] | – | – | – | –

Structure (SMILES) | Ki (5-HT6 receptor [1]) [nM] | Ki (5-HT7 receptor) [nM] | Ki (dopamine D2L receptor) [nM] | Ki (5-HT1A receptor) [nM] | % inhibition of control agonist response (5-HT6 receptor [2]) [%] | % inhibition of control antagonist response (5-HT6 receptor [2]) [%] | Ki (5-HT6 receptor [1]; [3]) [nM] | Ki (5-HT7 receptor; read-out: Ki 5-HT7) [nM] | Ki (dopamine D2L receptor; read-out: Ki D2, cloned human receptor in HEK293, three independent experiments, SEM ± 22%) [nM] | Ki (5-HT1A receptor; read-out: Ki 5-HT1A, cloned human receptor in HEK293, three independent experiments, SEM ± 22%) [nM]
O=S(=O)(c1ccccc1Br)n1ccc2c(N3CCNCC3)nc3ccccc3c21 [Compound 28, 1-((2-bromophenyl)sulfonyl)-4-(piperazin-1-yl)-1H-pyrrolo[3,2-c]quinoline] | 3 | 7900 | 7150 | 1220 | – | – | – | – | – | –
O=S(=O)(c1ccc(F)cc1)n1ccc2c(N3CCNCC3)nc3ccccc3c21 [Compound 31, 1-((4-fluorophenyl)sulfonyl)-4-(piperazin-1-yl)-1H-pyrrolo[3,2-c]quinoline] | – | 6400 | 5940 | 214 | – | – | 18 | – | – | –
O=S(=O)(c1cc(F)ccc1F)n1ccc2c(N3CCNCC3)nc3ccccc3c21 [Compound 32, 1-((2,5-difluorophenyl)sulfonyl)-4-(piperazin-1-yl)-1H-pyrrolo[3,2-c]quinoline] | – | 7690 | 5090 | 238 | – | – | – | – | – | –
O=S(=O)(c1ccc(F)c(F)c1)n1ccc2c(N3CCNCC3)nc3ccccc3c21 [Compound 33, 1-((3,4-difluorophenyl)sulfonyl)-4-(piperazin-1-yl)-1H-pyrrolo[3,2-c]quinolinee] | – | 5010 | 1780 | 311 | – | – | – | – | – | –
O=S(=O)(c1ccc(C(F)(F)F)cc1)n1ccc2c(N3CCNCC3)nc3ccccc3c21 [Compound 36, 1-((4-(trifluoromethyl)phenyl)sulfonyl)-4-(piperazin-1-yl)-1H-pyrrolo[3,2-c]quinoline] | – | 2260 | 13300 | 194 | – | – | 34 | – | – | –
COc1cccc(S(=O)(=O)n2ccc3c(N4CCNCC4)nc4ccccc4c32)c1 [Compound 37, 1-((3-methoxyphenyl)sulfonyl)-4-(piperazin-1-yl)-1H-pyrrolo[3,2-c]quinoline] | – | 5250 | 7040 | 372 | – | – | – | – | – | –
CN1CCN(c2nc3ccccc3c3c2ccn3S(=O)(=O)c2cccc(Cl)c2)CC1 [Compound 54, 1-((3-chlorophenyl)sulfonyl)-4-(4-methylpiperazin-1-yl)-1H-pyrrolo[3,2-c]quinoline] | – | 3490 | 1260 | 519 | – | – | – | – | – | –
CN1CCN(c2nc3ccccc3c3c2ccn3S(=O)(=O)c2ccc(F)cc2)CC1 [Compound 56, 1-((4-fluorophenyl)sulfonyl)-4-(4-methylpiperazin-1-yl)-1H-pyrrolo[3,2-c]quinoline] | – | – | 393 | 152 | – | – | – | – | – | –
